The text below walks through data of patent publication US20090289071A1, “Flow Through Components with an Antimicrobial Lining” (THE BOC GROUP, INC., priority 2004, published 2009).

Assay in series [1]: not given
This is another data set of the same source.

For series [2] the following is noted: estimated; called medium value.

SMILES strings stand for the structures.

Regarding `CCCCNC(=O)[N-]S(=O)(=O)c1ccc(C)cc1.[Ag+]` [AgTol, silver tolbutamide], the “solubility compared with silver sulfadiazine” value (relative to silver sulfadiazine) was “considerably greater than that of silver sulfadiazine”. Also, the solubility entry (variety of organic solvents, including solvents containing polymers) was “soluble in a variety of organic solvents”. The light stability entry in series [1] (as a solid) is “light stable”. In series [1] (present in a coating), the photostability result is recorded as “not photostable”. In addition, the “dissociation constant (pK)” value in series [2] is listed as more than 3.3.
